From patent publication US20260285815A1, “Imidazolidinyl Vanillic Acid Ether Derivative and Use Thereof” (priority 2022, published 2026)
Read-outs that look alike come from different tables or passages of the source.

What was measured:
[1] = in vivo; set-up: species or system SD rats; conditions: rat, po, 15 mg/kg
Description: Eighteen SD male rats (purchased from Weitong Lihua Experimental Animal Technology Co., Ltd., certificate number: 20211103Aazz0619000910), weighing 240-280 g, were randomly divided into 6 groups, with 3 rats in each group. The animals were fasted overnight before administration. On the day of administration, the compounds of Examples 3, 4, 5, 6, Compound A. and Compound A methyl ester were gavaged to the animals in each groups respectively, and the dosage was 15 mg/kg (calculated as Compound A). Before administration and 0.25, 0.5, 1, 2, 4, 6, 8, and 24 h after administration, 0.15 mL of blood was collected from the animals through the jugular sinus and placed in an EDTA-K2 anticoagulant tube containing 3 μL of dichlorvos aqueous solution (10 mg/mL). After centrifugation, plasma was collected, and was placed in the sample, and then 10 μL of plasma sample was taken, 500 μL of acetonitrile containing IS (verapamil 5 ng·mL^−1, glibenclamide 50 ng·mL^−1, tolbutamide 200 ng·mL^−1, and diclofenac 200 ng·mL^−1) was added, vortexed for 10 min, and then centrifuged at 3700 rpm for 10 min, and then 70 μL of supernatant and 70 μL of water were added, and vortexed for 10 min. An aliquot of 2 μL of the mixture was injected into the LC-MS/MS system (Triple Quad 5500+: LC-MS-MS-022) to measure blood concentration of the compounds. WinNonlin 8.0 software was used to analyze the pharmacokinetic parameters.

[2] = tested on: adenosine diphosphate (ADP)-induced platelet aggregation; conditions: rabbit; from CN101851209B; cited from earlier work
[3] = background statement; cited from earlier work
[4] = background statement; cited from earlier work; remark: listed apart in the source
[5] = tested on: arteriovenous bypass thrombi in rats; test: Antithrombotic activity in vivo: arteriovenous bypass thrombosis in rats; conditions: for inhibition at 15 mg/kg: Rattus norvegicus, po
Description: Each group was given corresponding drugs by gavage (dosage was 15 mg/kg), and the normal control group was given an equal volume of solvent, all of which were given by single gavage. One hour after the last administration, the rats were anesthetized with 3% chloral hydrate intraperitoneally, and the right common carotid artery and left external jugular vein were isolated in a supine position. A polyethylene tube was taken with an inner diameter of 1.5 mm and a length of 10 cm, a 6 cm long silk thread (pre-weighed) was inserted into it, and the polyethylene tube was filled with normal saline solution of heparin (50 U/ml). One end of the polyethylene tube was inserted into the left external jugular vein, heparin (50 U/kg) was injected, and the other end was inserted into the right common carotid artery. After blood flow was opened for 15 minutes, the blood flow was interrupted and the silk thread was quickly taken out and weighed. The total weight minus the original silk thread weight was the wet weight of the thrombus. The silk thread was placed in an oven for drying at 70° C. The dry weight of the thrombus was obtained by weighing the silk thread minus the original silk thread weight, and the inhibition rate was calculated.

Compound	AUC(0-inf) [1] [ng·h/mL]	AUC(0-t) [1] [ng·h/mL]	Cmax [1] [ng/mL]	F (bioavailability relative to compound A) [1] [%]	MRT last [1] [h]	Tmax [1] [h]	half-life [1] [h]	Inhibitory effect on ADP-induced platelet aggregation [2]	Oral bioavailability [3]	Ability to penetrate the blood-brain barrier [4]	inhibition at 15 mg/kg ([5]; read-out: Inhibition rate (thrombus dry weight)) [%]	inhibition at 15 mg/kg ([5]; read-out: Inhibition rate (thrombus wet weight)) [%]	Thrombus wet weight ([5]; rat arteriovenous bypass, 15 mg/kg single gavage, 1 h after dosing, 15 min blood flow, x ± s, n = 8)	Thrombus dry weight ([5]; rat arteriovenous bypass, 15 mg/kg single gavage, thread dried at 70° C., x ± s, n = 8)
COC(=O)c1ccc(OCCn2ccnc2)c(OC)c1 [Compound A methyl ester, reference compound]	1600	1490	513	92.18	6.5	0.46	8.4	–	–	–	–	–	–	–
COc1cc(C(=O)O)ccc1OCCn1ccnc1 [Compound A, reference compound]	1720	1610	604	–	5.4	0.35	10.7	significant inhibitory effect	low	weak	36	31	69.8 ± 11.2^★★ mg	21.8 ± 6.0^★★ mg
COc1cc(C(=O)OC(C)OC(C)=O)ccc1OCCn1ccnc1 (centres unmarked) [Example 6, 1-acetoxyethyl-4-(2-(1H-imidazol-1-yl)ethoxy)-3-methoxybenzoate]	3170	2850	8140	176.8	1.09	0.25	4.86	–	–	–	–	–	–	–

More lines, main results first:

AUC(0-inf) [1] [ng·h/mL]	AUC(0-t) [1] [ng·h/mL]	Cmax [1] [ng/mL]	F (bioavailability relative to compound A) [1] [%]	MRT last [1] [h]	Tmax [1] [h]	half-life [1] [h]	Compound	Inhibitory effect on ADP-induced platelet aggregation [2]	Oral bioavailability [3]	Ability to penetrate the blood-brain barrier [4]	inhibition at 15 mg/kg ([5]; read-out: Inhibition rate (thrombus dry weight)) [%]	inhibition at 15 mg/kg ([5]; read-out: Inhibition rate (thrombus wet weight)) [%]	Thrombus wet weight ([5]; rat arteriovenous bypass, 15 mg/kg single gavage, 1 h after dosing, 15 min blood flow, x ± s, n = 8)	Thrombus dry weight ([5]; rat arteriovenous bypass, 15 mg/kg single gavage, thread dried at 70° C., x ± s, n = 8)
3380	3230	8590	200.37	0.47	0.25	3.06	COc1cc(C(=O)OCCCCCC(=O)O)ccc1OCCn1ccnc1 [Example 3, 6-(4-(2-(1H-imidazol-1-yl)ethoxy)-3-methoxybenzoyloxy)hexanoic acid]	–	–	–	–	–	–	–
3000	2890	7080	179.28	0.85	0.25	3.43	COc1cc(C(=O)OCOC(=O)OC(C)C)ccc1OCCn1ccnc1 [Example 5, ((isopropoxycarbonyl)oxy)methyl-4-(2-(1H-imidazol-1-yl)ethoxy)-3-methoxybenzoate]	–	–	–	–	–	–	–
